Test results as given in the NIST ThermoML archive (doi:10.1021/je401120a).
Numbers after ± are expanded uncertainties.

Test: xn = mol fraction of the nth substance listed
Conditions: 101 kPa, Liquid; for electrical conductivity: Crison conductimeter (model GLP31); for speed of sound: Pulse-echo method; for mass density: Vibrating tube method

CCC[n+]1ccccc1.F[B-](F)(F)F [1-propylpyridinium tetrafluoroborate] + CO
Conditions	electrical conductivity [S/m]	mass density [kg/m3]	speed of sound [m/s]	viscosity [mPa·s]
313.15 K, x1 = 0.028	–	829.037 ± 0.39	1104.3 ± 1.2	–
313.15 K, x1 = 0.0313	3.41 ± 0.07	–	–	–
313.15 K, x1 = 0.0365	3.77 ± 0.08	–	–	–
313.15 K, x1 = 0.0422	4.13 ± 0.08	–	–	–
313.15 K, x1 = 0.0505	–	–	–	0.7578 ± 0.02
313.15 K, x1 = 0.0577	–	876.892 ± 0.31	1151.5 ± 1.2	–
313.15 K, x1 = 0.0658	4.95 ± 0.1	–	–	–
313.15 K, x1 = 0.0775	5.27 ± 0.11	–	–	–
313.15 K, x1 = 0.0894	5.59 ± 0.11	–	–	–
313.15 K, x1 = 0.0967	–	927.831 ± 0.26	1204.8 ± 1.2	–
313.15 K, x1 = 0.0993	–	–	–	1.273 ± 0.031
313.15 K, x1 = 0.1294	6.03 ± 0.12	–	–	–
313.15 K, x1 = 0.1409	6.12 ± 0.12	–	–	–
313.15 K, x1 = 0.1459	–	979.474 ± 0.23	1261.3 ± 1.3	–
313.15 K, x1 = 0.1703	6.3 ± 0.13	–	–	–
313.15 K, x1 = 0.191	–	–	–	2.523 ± 0.058
313.15 K, x1 = 0.1952	–	1020.19 ± 0.19	1314.3 ± 1.3	–
313.15 K, x1 = 0.2002	6.26 ± 0.13	–	–	–
313.15 K, x1 = 0.2456	6.05 ± 0.12	–	–	–
313.15 K, x1 = 0.2819	5.68 ± 0.11	–	–	–
313.15 K, x1 = 0.291	–	–	–	4.303 ± 0.098
313.15 K, x1 = 0.3213	–	1094.6 ± 0.24	1409.3 ± 1.4	–
313.15 K, x1 = 0.3507	5.15 ± 0.1	–	–	–
313.15 K, x1 = 0.3918	–	–	–	6.052 ± 0.13
313.15 K, x1 = 0.3937	4.76 ± 0.1	–	–	–
313.15 K, x1 = 0.4002	–	1127.34 ± 0.3	1453.2 ± 1.5	–
313.15 K, x1 = 0.4334	4.32 ± 0.09	–	–	–
313.15 K, x1 = 0.464	3.91 ± 0.08	–	–	–
313.15 K, x1 = 0.4929	–	–	–	8.501 ± 0.18
313.15 K, x1 = 0.4965	–	1157.84 ± 0.41	1492.7 ± 1.6	–
313.15 K, x1 = 0.5398	3.26 ± 0.07	–	–	–
313.15 K, x1 = 0.5988	–	1183.22 ± 0.56	1527.3 ± 1.8	–
313.15 K, x1 = 0.6117	–	–	–	12.48 ± 0.25
313.15 K, x1 = 0.635	2.5 ± 0.05	–	–	–
313.15 K, x1 = 0.6904	–	1201.32 ± 0.71	1550.3 ± 1.9	–
313.15 K, x1 = 0.7331	–	–	–	20 ± 0.4
313.15 K, x1 = 0.7918	1.5 ± 0.03	–	–	–
313.15 K, x1 = 0.7923	–	–	–	25.3 ± 0.51
313.15 K, x1 = 0.8011	–	1218.9 ± 0.92	1573.6 ± 2	–
313.15 K, x1 = 0.8425	–	–	–	31.76 ± 0.64
313.15 K, x1 = 0.8824	–	1229.83 ± 1.1	1589.4 ± 2.2	–
313.15 K, x1 = 0.894	1.05 ± 0.021	–	–	–
313.15 K, x1 = 0.8956	–	–	–	38.87 ± 0.78
313.15 K, x1 = 0.9384	0.94 ± 0.019	–	–	–
313.15 K, x1 = 0.94	–	1236.33 ± 1.2	1598.5 ± 2.2	–
313.15 K, x1 = 0.9447	–	–	–	46.64 ± 0.94
313.15 K, x1 = 1	0.799 ± 0.016	1242.43 ± 1.4	1606.3 ± 2.4	56.02 ± 0.89
323.15 K, x1 = 0.028	–	820.035 ± 0.39	1073.8 ± 1.2	–
323.15 K, x1 = 0.0313	3.87 ± 0.08	–	–	–
323.15 K, x1 = 0.0365	4.25 ± 0.09	–	–	–
323.15 K, x1 = 0.0422	4.68 ± 0.09	–	–	–
323.15 K, x1 = 0.0505	–	–	–	0.673 ± 0.018
323.15 K, x1 = 0.0577	–	867.868 ± 0.32	1123.5 ± 1.2	–
323.15 K, x1 = 0.0658	5.62 ± 0.11	–	–	–
323.15 K, x1 = 0.0775	6 ± 0.12	–	–	–
323.15 K, x1 = 0.0894	6.37 ± 0.13	–	–	–
323.15 K, x1 = 0.0967	–	918.92 ± 0.27	1178.7 ± 1.2	–
323.15 K, x1 = 0.0993	–	–	–	1.009 ± 0.025
323.15 K, x1 = 0.1294	6.98 ± 0.14	–	–	–
323.15 K, x1 = 0.1409	7.05 ± 0.14	–	–	–
323.15 K, x1 = 0.1459	–	970.736 ± 0.23	1237 ± 1.3	–
323.15 K, x1 = 0.1703	7.23 ± 0.14	–	–	–
323.15 K, x1 = 0.191	–	–	–	1.915 ± 0.045
323.15 K, x1 = 0.1952	–	1011.68 ± 0.19	1291 ± 1.3	–
323.15 K, x1 = 0.2002	7.2 ± 0.14	–	–	–
323.15 K, x1 = 0.2456	7 ± 0.14	–	–	–
323.15 K, x1 = 0.2819	6.64 ± 0.13	–	–	–
323.15 K, x1 = 0.291	–	–	–	3.255 ± 0.075
323.15 K, x1 = 0.3213	–	1086.6 ± 0.24	1385.4 ± 1.4	–
323.15 K, x1 = 0.3507	6.05 ± 0.12	–	–	–
323.15 K, x1 = 0.3918	–	–	–	4.475 ± 0.1
323.15 K, x1 = 0.3937	5.63 ± 0.11	–	–	–
323.15 K, x1 = 0.4002	–	1119.59 ± 0.3	1429.5 ± 1.5	–
323.15 K, x1 = 0.4334	5.12 ± 0.1	–	–	–
323.15 K, x1 = 0.464	4.78 ± 0.1	–	–	–
323.15 K, x1 = 0.4929	–	–	–	6.13 ± 0.13
323.15 K, x1 = 0.4965	–	1150.3 ± 0.41	1467.3 ± 1.6	–
323.15 K, x1 = 0.5398	3.97 ± 0.08	–	–	–
323.15 K, x1 = 0.5988	–	1175.76 ± 0.55	1503.9 ± 1.8	–
323.15 K, x1 = 0.6117	–	–	–	8.91 ± 0.19
323.15 K, x1 = 0.635	3.15 ± 0.06	–	–	–
323.15 K, x1 = 0.6904	–	1193.84 ± 0.7	1527.1 ± 1.9	–
323.15 K, x1 = 0.7331	–	–	–	14.27 ± 0.29
323.15 K, x1 = 0.7918	1.96 ± 0.039	–	–	–
323.15 K, x1 = 0.7923	–	–	–	18.12 ± 0.37
323.15 K, x1 = 0.8011	–	1211.54 ± 0.91	1550.5 ± 2	–
323.15 K, x1 = 0.8425	–	–	–	22.39 ± 0.46
323.15 K, x1 = 0.8824	–	1222.55 ± 1.1	1566.5 ± 2.2	–
323.15 K, x1 = 0.894	1.48 ± 0.03	–	–	–
323.15 K, x1 = 0.8956	–	–	–	26.94 ± 0.55
323.15 K, x1 = 0.9384	1.34 ± 0.027	–	–	–
323.15 K, x1 = 0.94	–	1229.15 ± 1.2	1575 ± 2.2	–
323.15 K, x1 = 0.9447	–	–	–	31.72 ± 0.65
323.15 K, x1 = 1	1.15 ± 0.023	1235.31 ± 1.4	1583.3 ± 2.3	36.99 ± 0.76
